Laboratory results from PubChem BioAssay (NCI).
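1) Cells in 96-well plates. 2) Compound, 48 h, 5 concentrations. 3) Linear interpolation between surrounding doses. 4) Unreached endpoint = highest concentration. The concentration for 50% growth inhibition is given as GI50. TGI: total growth inhibition.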

Assays:
Assay in all cases: DTP human tumour cell line panel, 48 h
[1] = test system: 786-0 renal
[2] = test system: A498 renal
[3] = test system: A549 NSCLC
[4] = test system: ACHN renal
[5] = test system: BT-549 breast
[6] = test system: CAKI-1 renal
[7] = test system: CCRF-CEM leukemia
[8] = test system: COLO 205 colon
[9] = test system: DU-145 prostate
[10] = test system: EKVX NSCLC
[11] = test system: HCT-116 colon
[12] = test system: HCT-15 colon
[13] = test system: HL-60(TB) leukemia
[14] = test system: HOP-62 NSCLC
[15] = test system: HOP-92 NSCLC
[16] = test system: HS 578T breast
[17] = test system: HT29 colon
[18] = test system: IGROV1 ovarian
[19] = test system: K-562 leukemia
[20] = test system: KM12 colon
[21] = test system: LOX IMVI melanoma
[22] = test system: M14 melanoma
[23] = test system: MALME-3M melanoma
[24] = test system: MCF7 breast
[25] = test system: MDA-MB-231 breast
[26] = test system: MDA-MB-435
[27] = test system: MOLT-4 leukemia
[28] = test system: NCI-H226 lung
[29] = test system: NCI-H23 lung
[30] = test system: NCI-H460 lung
[31] = test system: NCI-H522 lung
[32] = test system: NCI/ADR-RES ovarian
[33] = test system: OVCAR-3 ovarian
[34] = test system: OVCAR-4 ovarian
[35] = test system: OVCAR-5 ovarian
[36] = test system: OVCAR-8 ovarian
[37] = test system: PC-3 prostate
[38] = test system: RPMI-8226 leukemia
[39] = test system: RXF 393 renal
[40] = test system: SF-268 CNS
[41] = test system: SF-295 CNS
[42] = test system: SF-539 CNS
[43] = test system: SK-MEL-2 melanoma
[44] = test system: SK-MEL-28 melanoma
[45] = test system: SK-MEL-5 melanoma
[46] = test system: SK-OV-3 ovarian
[47] = test system: SN12C renal
[48] = test system: SNB-19 CNS
[49] = test system: SNB-75 CNS
[50] = test system: SR leukemia
[51] = test system: SW-620 colon
[52] = test system: T-47D breast
[53] = test system: TK-10 renal
[54] = test system: U251 CNS
[55] = test system: UACC-257 melanoma
[56] = test system: UACC-62 melanoma
[57] = test system: UO-31 renal

COc1cc2c(Nc3ccc(-c4ccc(N)cc4)cc3)ncnc2c(OC)c1OC
GI50 [1]: 3.72 µM | TGI [1]: > 100 µM | GI50 [2]: 15.1 µM | TGI [2]: 56 µM | GI50 [3]: 2.68 µM | TGI [3]: > 100 µM | GI50 [4]: 1.76 µM | TGI [4]: > 100 µM | GI50 [5]: 7.99 µM | TGI [5]: 55 µM | GI50 [6]: 0.655 µM | TGI [6]: > 56.5 µM | GI50 [7]: 6.09 µM | TGI [7]: > 100 µM | GI50 [8]: 2.6 µM | TGI [8]: 7.94 µM | GI50 [9]: 18.4 µM | TGI [9]: > 100 µM | GI50 [10]: 5.4 µM | TGI [10]: > 100 µM | GI50 [11]: 3.79 µM | TGI [11]: 55.3 µM | GI50 [12]: 0.607 µM | TGI [12]: > 85.7 µM | GI50 [13]: 2.54 µM | TGI [13]: 20.4 µM | GI50 [14]: 24.8 µM | TGI [14]: > 100 µM | GI50 [15]: 18.3 µM | TGI [15]: > 100 µM | GI50 [16]: 11.5 µM | TGI [16]: > 68 µM | GI50 [17]: 8.02 µM | TGI [17]: > 81.7 µM | GI50 [18]: 12.6 µM | TGI [18]: > 100 µM | GI50 [19]: 0.521 µM | TGI [19]: > 100 µM | GI50 [20]: 0.615 µM | TGI [20]: 41.6 µM | GI50 [21]: 0.438 µM | TGI [21]: > 100 µM | GI50 [22]: 0.542 µM | TGI [22]: > 67.1 µM | GI50 [23]: 22.4 µM | TGI [23]: > 92.2 µM | GI50 [24]: 3.54 µM | TGI [24]: > 100 µM | GI50 [25]: 2.9 µM | TGI [25]: > 100 µM | GI50 [26]: 0.752 µM | TGI [26]: 47.1 µM | GI50 [27]: 4.05 µM | TGI [27]: > 100 µM | GI50 [28]: 21 µM | TGI [28]: > 100 µM | GI50 [29]: 19.5 µM | TGI [29]: > 100 µM | GI50 [30]: 2.89 µM | TGI [30]: > 66.4 µM | GI50 [31]: 3.15 µM | TGI [31]: > 80.9 µM | GI50 [32]: 4.54 µM | TGI [32]: > 100 µM | GI50 [33]: 6.43 µM | TGI [33]: > 59.3 µM | GI50 [34]: 6.01 µM | TGI [34]: > 100 µM | GI50 [35]: 6.29 µM | TGI [35]: > 100 µM | GI50 [36]: 5.46 µM | TGI [36]: 56.9 µM | GI50 [37]: 5.46 µM | TGI [37]: > 89.1 µM | GI50 [38]: 3.78 µM | TGI [38]: 41.4 µM | GI50 [39]: 24.9 µM | TGI [39]: > 95.9 µM | GI50 [40]: 19.1 µM | TGI [40]: > 100 µM | GI50 [41]: 1.5 µM | TGI [41]: 7.52 µM | GI50 [42]: 2.42 µM | TGI [42]: > 28.7 µM | GI50 [43]: 4.96 µM | TGI [43]: > 78.1 µM | GI50 [44]: 11.9 µM | TGI [44]: > 100 µM | GI50 [45]: 1.94 µM | TGI [45]: 5.3 µM | GI50 [46]: 46.5 µM | TGI [46]: > 100 µM | GI50 [47]: 11.2 µM | TGI [47]: > 100 µM | GI50 [48]: 7.76 µM | TGI [48]: > 100 µM | GI50 [49]: 16.6 µM | TGI [49]: 64.9 µM | GI50 [50]: 5.5 µM | TGI [50]: 84.9 µM | GI50 [51]: 0.733 µM | TGI [51]: > 100 µM | GI50 [52]: 5.13 µM | TGI [52]: 86.7 µM | GI50 [53]: 21 µM | TGI [53]: > 100 µM | GI50 [54]: 7.93 µM | TGI [54]: > 100 µM | GI50 [55]: 4.58 µM | TGI [55]: > 100 µM | GI50 [56]: 0.522 µM | TGI [56]: > 35.1 µM | GI50 [57]: 2.07 µM | TGI [57]: > 76.5 µM
